# According to patent publication US5321030A, “Creatine analogs having antiviral activity” (priority 1991, dated 1994):
# Where two headings read alike, the source gives them in different places.
# Tests used:
# [1] = test system: Varicella-Zoster Virus, strain Oka; test: microbe, parasite or virus in culture; assay type: cell-based; set-up: TI50 (CD50 ÷ ED50): unit not given beside the values
# [2] = Cytotoxicity in plaque reduction assay, MRC-5 cells; assay type: cell-based, human; settings: human, mrc-5 cells, read-out: CD50 (the source's name)
# Experimental: (§1) Cytotoxicity was determined by examination of cells (located away from plaques) in infected wells which had been treated with drug.
# [3] = test system: HCMV, strain AD-169; test: Plaque reduction assay, HCMV strain AD-169; assay type: cell-based, Human Cytomegalovirus; set-up: TI50 (CD50 ÷ ED50): unit not given here; settings: for EC50: read-out: ED50 (the source's name)
# [4] = test system: HCMV, strain C8704 (DHPG resistant); test: microbe, parasite or virus in culture; assay type: cell-based, Human Cytomegalovirus; set-up: TI50 (CD50 ÷ ED50): unit not given beside the values; settings: for # Plaques: virus control 91.0 ± 8.4
# [5] = in vitro; settings: guinea pig, gpe cells
# [6] = test system: Guinea Pig Cytomegalovirus, Strain 22122; test: CPE reduction assay, guinea pig cytomegalovirus in GPE cells; assay type: cell-based; set-up: TI50 (CD50 ÷ ED50): unit not given here; settings: for Average CPE: virus controls 4.0
# [7] = Cytotoxicity in plaque reduction assay, CV-1 cells; assay type: cell-based, African Green Monkey; settings: monkey, Table 9B, read-out: CD50 (the source's name)
# [8] = test system: HCMV, strain C8805-37 (DHPG resistant); test: microbe, parasite or virus in culture; assay type: cell-based, Human Cytomegalovirus; set-up: TI50 (CD50 ÷ ED50): unit not given beside the values; settings: for # Plaques: virus control 11.5 ± 2.1
# [9] = Cytotoxicity in plaque reduction assay, Hs68 cells; assay type: cell-based; settings: human, Table 5, previous data, read-out: CD50 (the source's name)
# Experimental: as §1
# [10] = Human alphaherpesvirus 3, CV-1, read-out: % Reduction
# [11] = Human alphaherpesvirus 3, MRC5, read-out: % Reduction
# [12] = Human betaherpesvirus 5, MRC5, DHPG 1.0 μg/ml, read-out: % Reduction
# [13] = Human betaherpesvirus 5, MRC5, DHPG 3.2 μg/ml, read-out: % Reduction
# [14] = Human betaherpesvirus 5, MRC5, DHPG 10 μg/ml, read-out: % Reduction
# [15] = Human betaherpesvirus 5, MRC5, DHPG 32 μg/ml, read-out: % Reduction
smiles,measurement,setting,value
"Nc1nc(O)c2ncn(COC(CO)CO)c2n1 [DHPG, dihydroxypropoxymethylguanine, reference compound]",# Plaques,"[1]; CV-1 cells, DHPG 3.2 μg/ml, virus control 70.25 ± 6.9",77
same,# Plaques,"[1]; CV-1 cells, DHPG 10 μg/ml, virus control 70.25 ± 6.9",63
same,inhibition at 3.2 µg/mL,[1]; [10],0%
same,inhibition at 10 µg/mL,[1]; [10],10%
same,EC50,"[1]; Human alphaherpesvirus 3, CV-1, read-out: ED50",> 10 µg/mL
same,inhibition at 0.32 µg/mL,[1]; [11],0%
same,inhibition at 1 µg/mL,[1]; [11],0%
same,inhibition at 3.2 µg/mL,[1]; [11],0%
same,inhibition at 10 µg/mL,[1]; [11],62%
same,EC50,"[1]; Human alphaherpesvirus 3, MRC5, read-out: ED50",8 µg/mL
same,TI50 (CD50 ÷ ED50),"[1]; MRC-5 cells, Table 9A",> 125
same,# Plaques,"[1]; MRC-5 cells, DHPG 0.32 μg/ml, virus control 32.7 ± 9.3",24.5
same,# Plaques,"[1]; MRC-5 cells, DHPG 1.0 μg/ml, virus control 32.7 ± 9.3",37
same,# Plaques,"[1]; MRC-5 cells, DHPG 3.2 μg/ml, virus control 32.7 ± 9.3",25
same,# Plaques,"[1]; MRC-5 cells, DHPG 10 μg/ml, virus control 32.7 ± 9.3",12.5
same,CC50,[2]; Table 4,> 100 µg/mL
same,CC50,"[2]; Table 6, previous data",> 1000 µg/mL
same,CC50,"[2]; Table 7, previous data",> 1000 µg/mL
same,CC50,"[2]; Table 9A, previous data",> 1000 µg/mL
same,TI50 (CD50 ÷ ED50),"[3]; Hs-68 cells, Table 5",> 526
same,# Plaques,"[3]; Hs-68 cells, DHPG 1.0 μg/ml, virus control 74.2 ± 8.6",68.5
same,# Plaques,"[3]; Hs-68 cells, DHPG 3.2 μg/ml, virus control 74.2 ± 8.6",7
same,# Plaques,"[3]; Hs-68 cells, DHPG .32 μg/ml, virus control 74.2 ± 8.6",100.5
same,EC50,"[3]; Human betaherpesvirus 5, AD169, Hs68, Hs-68 cells, Table 5",1.9 µg/mL
same,EC50,"[3]; Human betaherpesvirus 5, AD169, MRC5, MRC-5 cells, Table 4",3.7 µg/mL
same,TI50 (CD50 ÷ ED50),"[3]; MRC-5 cells, Table 4",> 27
same,# Plaques,"[3]; MRC-5 cells, DHPG 3.2 μg/ml, virus control 26.4 ± 5.2",15
same,# Plaques,"[3]; MRC-5 cells, DHPG 10 μg/ml, virus control 26.4 ± 5.2",0.5
same,# Plaques,"[3]; MRC-5 cells, DHPG 32 μg/ml, virus control 26.4 ± 5.2",0
same,# Plaques,"[3]; MRC-5 cells, DHPG 100 μg/ml, virus control 26.4 ± 5.2",0
same,# Plaques,[4]; DHPG 1.0 μg/ml,92.5
same,# Plaques,[4]; DHPG 3.2 μg/ml,85
same,# Plaques,[4]; DHPG 10 μg/ml,80
same,# Plaques,[4]; DHPG 32 μg/ml,91
same,inhibition at 1 µg/mL,[4]; [12],0%
same,inhibition at 3.2 µg/mL,[4]; [13],0%
same,inhibition at 10 µg/mL,[4]; [14],0%
same,inhibition at 32 µg/mL,[4]; [15],41%
same,EC50,"[4]; Human betaherpesvirus 5, MRC5, MRC-5 cells, Table 6, read-out: ED50 (the source's name)",> 32 µg/mL
same,EC50,"[4]; Human betaherpesvirus 5, MRC5, MRC-5 cells, Table 6, read-out: ED50, approximate value in parentheses",~41 µg/mL
same,TI50 (CD50 ÷ ED50),"[4]; MRC-5 cells, Table 6",> 24
same,CC50,[5],> 1000 µg/mL
same,EC50,"[6]; Caviid betaherpesvirus 2, GPE cells, Table 3, read-out: ED50 (the source's name)",18.4 µg/mL
same,Average CPE,[6]; DHPG 1.0 μg/ml,4.0
same,Average CPE,[6]; DHPG 3.2 μg/ml,4.0
same,Average CPE,[6]; DHPG 10 μg/ml,3.5
same,Average CPE,[6]; DHPG 32 μg/ml,0.7
same,Average CPE,[6]; DHPG 100 μg/ml,0
same,Average CPE,[6]; DHPG 320 μg/ml,0
same,Average CPE,[6]; DHPG 1000 μg/ml,0
same,TI50 (CD50 ÷ ED50),"[6]; GPE cells, Table 3",> 54
same,CC50,[7],> 10 µg/mL
same,# Plaques,[8]; DHPG 1.0 μg/ml,13
same,# Plaques,[8]; DHPG 3.2 μg/ml,6.5
same,# Plaques,[8]; DHPG 10 μg/ml,10
same,# Plaques,[8]; DHPG 32 μg/ml,4.5
same,inhibition at 1 µg/mL,[8]; [12],0%
same,inhibition at 3.2 µg/mL,[8]; [13],43%
same,inhibition at 10 µg/mL,[8]; [14],0%
same,inhibition at 32 µg/mL,[8]; [15],61%
same,EC50,"[8]; Human betaherpesvirus 5, MRC5, MRC-5 cells, Table 7, read-out: ED50 (the source's name)",11 µg/mL
same,TI50 (CD50 ÷ ED50),"[8]; MRC-5 cells, Table 7",> 91
same,CC50,[9],> 1000 µg/mL
